The values that follow come from the NIST ThermoML archive (doi:10.1016/j.jct.2008.03.017).

Numbers after ± are expanded uncertainties.

A word on the mass density: it is the mass of a sample divided by its volume. As usually defined, the vapor or sublimation pressure is the equilibrium pressure above the liquid or solid.

The conditions of the series: Liquid; for mass density: 101.33 kPa.

Regarding `C1COCO1` [1,3-dioxolane], for the setting “298.15 K”, the mass density is listed as 1058.62 ± 0.71 kg/m3 and the “vapor or sublimation pressure” value was 13.54 ± 0.14 kPa. In addition, where the note is “328.15 K”, the mass density is listed as 1039.88 ± 0.64 kg/m3 and the “vapor or sublimation pressure” value is recorded as 49.01 ± 0.19 kPa.
Taken in the same sequence, the figures for `C1CCOCC1` [tetrahydropyran] were 878.81 ± 0.81 kg/m3, 9.56 ± 0.14 kPa, 863.67 ± 0.85 kg/m3 and 33.95 ± 0.17 kPa.
Taken in the same sequence, the figures for `C1COCCO1` [1,4-dioxane] were 1027.87 ± 0.6 kg/m3, 4.9 ± 0.13 kPa, 1010.69 ± 0.53 kg/m3 and 19.54 ± 0.15 kPa.
For `C1CCOC1` [tetrahydrofuran] the same measures were 881.95 ± 0.45 kg/m3, 21.61 ± 0.15 kPa, 865.36 ± 0.49 kg/m3 and 70.61 ± 0.22 kPa.
As for `CCCCCCCl` [1-chlorohexane], the mass density is, setting by setting: (298.15 K) 873.5 kg/m3; (328.15 K) 859.01 kg/m3. Besides, the “vapor or sublimation pressure” value reads like this: (298.15 K) 1.255 ± 0.13 kPa; (328.15 K) 5.965 ± 0.13 kPa.
